Laboratory results published in publication PMC4279382, “Antitumor activity of S116836, a novel tyrosine kinase inhibitor, against imatinib-resistant FIP1L1-PDGFRα-expressing cells” (Oncotarget, 2014).

Legend:
Assay in all cases: KINOMEscan competition binding, single concentration
Settings in all cases: read-out: % Ctrl @ 100nM
PLK1 = target: T1, PLK1 (Homo sapiens, UniProt P53350)
T1 construct: KINOMEscan (Ambit) panel kinase
Description: KINOMEscan competition binding, single concentration on PLK1

PDGFRβ = target: T2, PDGFRβ (Homo sapiens, UniProt P09619)
T2 construct: gene PDGFRB; KINOMEscan (Ambit) panel kinase
Description: KINOMEscan competition binding, single concentration on PDGFRβ

SRC = target: T3, SRC (Homo sapiens, UniProt P12931)
T3 construct: KINOMEscan (Ambit) panel kinase
Description: KINOMEscan competition binding, single concentration on SRC

BLK = target: T4, BLK (Homo sapiens, UniProt P51451)
T4 construct: KINOMEscan (Ambit) panel kinase
T4 sequence (P51451 2-505): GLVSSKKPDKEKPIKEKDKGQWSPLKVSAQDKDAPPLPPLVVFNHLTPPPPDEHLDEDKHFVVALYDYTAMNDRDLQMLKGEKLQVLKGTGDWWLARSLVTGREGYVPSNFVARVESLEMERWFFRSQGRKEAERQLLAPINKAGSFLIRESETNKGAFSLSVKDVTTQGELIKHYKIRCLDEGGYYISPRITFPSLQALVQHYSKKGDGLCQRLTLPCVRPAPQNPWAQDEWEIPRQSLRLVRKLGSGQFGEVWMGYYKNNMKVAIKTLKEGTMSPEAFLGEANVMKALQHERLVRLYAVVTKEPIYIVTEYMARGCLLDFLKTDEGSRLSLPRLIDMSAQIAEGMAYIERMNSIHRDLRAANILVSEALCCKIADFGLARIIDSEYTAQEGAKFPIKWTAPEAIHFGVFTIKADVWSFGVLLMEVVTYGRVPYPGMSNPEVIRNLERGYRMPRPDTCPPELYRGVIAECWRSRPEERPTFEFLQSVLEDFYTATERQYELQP
Description: KINOMEscan competition binding, single concentration on BLK

TIE2 = target: T5, TIE2 (Homo sapiens, UniProt Q02763)
T5 construct: gene TEK; KINOMEscan (Ambit) panel kinase
T5 sequence (Q02763 23-1124): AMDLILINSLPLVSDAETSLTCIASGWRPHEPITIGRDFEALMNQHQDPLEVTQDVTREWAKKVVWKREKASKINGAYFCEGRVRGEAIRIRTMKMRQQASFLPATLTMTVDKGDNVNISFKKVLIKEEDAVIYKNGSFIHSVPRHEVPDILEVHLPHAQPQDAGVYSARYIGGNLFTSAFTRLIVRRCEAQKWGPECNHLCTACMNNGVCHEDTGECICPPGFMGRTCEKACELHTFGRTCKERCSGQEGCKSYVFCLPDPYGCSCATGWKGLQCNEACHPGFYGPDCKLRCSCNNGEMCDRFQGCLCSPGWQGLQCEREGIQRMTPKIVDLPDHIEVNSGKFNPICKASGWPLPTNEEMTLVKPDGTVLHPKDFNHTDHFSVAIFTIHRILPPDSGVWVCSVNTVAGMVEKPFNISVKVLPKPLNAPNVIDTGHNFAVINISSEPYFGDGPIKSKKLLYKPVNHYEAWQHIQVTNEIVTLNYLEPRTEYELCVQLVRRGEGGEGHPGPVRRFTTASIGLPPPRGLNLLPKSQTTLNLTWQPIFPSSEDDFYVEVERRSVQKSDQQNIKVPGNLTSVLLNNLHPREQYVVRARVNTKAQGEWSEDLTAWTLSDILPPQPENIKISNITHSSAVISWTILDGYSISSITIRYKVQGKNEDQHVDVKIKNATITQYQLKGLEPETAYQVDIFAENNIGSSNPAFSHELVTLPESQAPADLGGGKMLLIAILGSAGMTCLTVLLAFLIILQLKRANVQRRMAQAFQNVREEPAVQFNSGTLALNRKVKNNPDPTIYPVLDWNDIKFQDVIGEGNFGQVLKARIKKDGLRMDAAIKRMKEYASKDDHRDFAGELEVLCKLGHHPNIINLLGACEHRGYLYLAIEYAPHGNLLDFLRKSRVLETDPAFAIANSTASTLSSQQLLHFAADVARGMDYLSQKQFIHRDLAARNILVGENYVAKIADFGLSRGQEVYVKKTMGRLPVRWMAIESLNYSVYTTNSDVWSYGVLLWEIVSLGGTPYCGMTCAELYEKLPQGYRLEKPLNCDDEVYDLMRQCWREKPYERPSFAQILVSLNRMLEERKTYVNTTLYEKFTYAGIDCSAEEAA
Description: KINOMEscan competition binding, single concentration on TIE2

ABL1-nonphosphorylated [1] = target: T6, ABL1-nonphosphorylated (Homo sapiens, UniProt P00519)
T6 construct: KINOMEscan (Ambit) panel kinase, nonphosphorylated form
Description: (§1) KINOMEscan competition binding, single concentration on ABL1-nonphosphorylated

ABL1-nonphosphorylated [2] = target: T7, ABL1-nonphosphorylated (Homo sapiens, UniProt P00519, T315I)
T7 construct: KINOMEscan (Ambit) panel kinase, nonphosphorylated form
Description: as §1

FLT3 = target: T8, FLT3 (Homo sapiens, UniProt P36888)
T8 construct: KINOMEscan (Ambit) panel kinase
T8 sequence (P36888 27-993): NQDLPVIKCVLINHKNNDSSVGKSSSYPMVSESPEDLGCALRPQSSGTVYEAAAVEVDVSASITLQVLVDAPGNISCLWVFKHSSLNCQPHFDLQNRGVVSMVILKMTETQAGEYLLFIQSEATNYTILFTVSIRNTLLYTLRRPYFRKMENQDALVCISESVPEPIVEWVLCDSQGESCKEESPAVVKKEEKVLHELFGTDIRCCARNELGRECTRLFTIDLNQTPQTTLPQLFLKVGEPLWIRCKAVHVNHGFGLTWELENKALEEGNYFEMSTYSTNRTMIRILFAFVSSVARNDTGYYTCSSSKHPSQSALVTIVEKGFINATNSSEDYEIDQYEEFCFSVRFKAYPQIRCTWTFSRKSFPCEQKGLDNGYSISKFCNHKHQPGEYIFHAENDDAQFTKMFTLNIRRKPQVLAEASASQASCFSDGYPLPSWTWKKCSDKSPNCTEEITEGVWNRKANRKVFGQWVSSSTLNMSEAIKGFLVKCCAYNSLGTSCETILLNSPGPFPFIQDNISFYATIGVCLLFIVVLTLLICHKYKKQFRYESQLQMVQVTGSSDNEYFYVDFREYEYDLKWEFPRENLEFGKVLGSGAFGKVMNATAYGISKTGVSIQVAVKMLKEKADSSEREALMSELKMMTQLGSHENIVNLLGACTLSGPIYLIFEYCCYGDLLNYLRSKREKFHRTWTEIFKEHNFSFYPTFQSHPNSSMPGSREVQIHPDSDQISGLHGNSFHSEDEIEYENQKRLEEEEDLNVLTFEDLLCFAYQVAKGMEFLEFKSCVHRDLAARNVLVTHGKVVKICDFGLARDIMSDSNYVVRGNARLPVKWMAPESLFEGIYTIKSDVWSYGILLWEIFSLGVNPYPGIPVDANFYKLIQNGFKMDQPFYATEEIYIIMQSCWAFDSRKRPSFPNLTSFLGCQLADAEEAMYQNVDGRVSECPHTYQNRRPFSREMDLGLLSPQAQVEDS
Description: KINOMEscan competition binding, single concentration on FLT3

KIT = target: T9, KIT (Homo sapiens, UniProt P10721)
T9 construct: KINOMEscan (Ambit) panel kinase
Description: KINOMEscan competition binding, single concentration on KIT

LYN = target: T10, LYN (Homo sapiens, UniProt P07948)
T10 construct: KINOMEscan (Ambit) panel kinase
T10 sequence (P07948 2-512): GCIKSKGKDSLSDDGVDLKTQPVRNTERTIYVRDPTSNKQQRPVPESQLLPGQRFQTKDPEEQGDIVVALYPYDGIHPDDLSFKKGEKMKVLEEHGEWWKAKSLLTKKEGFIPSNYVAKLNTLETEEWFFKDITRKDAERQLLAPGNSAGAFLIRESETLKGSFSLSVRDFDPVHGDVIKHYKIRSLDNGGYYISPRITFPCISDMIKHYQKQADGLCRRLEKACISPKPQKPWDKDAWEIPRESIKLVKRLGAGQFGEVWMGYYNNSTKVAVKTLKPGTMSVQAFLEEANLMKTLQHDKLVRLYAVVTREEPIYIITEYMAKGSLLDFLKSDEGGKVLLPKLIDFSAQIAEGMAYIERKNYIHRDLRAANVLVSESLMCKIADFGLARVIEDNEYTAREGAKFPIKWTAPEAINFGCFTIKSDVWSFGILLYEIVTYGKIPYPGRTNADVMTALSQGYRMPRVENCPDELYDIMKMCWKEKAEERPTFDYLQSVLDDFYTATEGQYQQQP
Description: KINOMEscan competition binding, single concentration on LYN

PDGFRα = target: T11, PDGFRα (Homo sapiens, UniProt P16234)
T11 construct: gene PDGFRA; KINOMEscan (Ambit) panel kinase
T11 sequence (P16234 24-1089): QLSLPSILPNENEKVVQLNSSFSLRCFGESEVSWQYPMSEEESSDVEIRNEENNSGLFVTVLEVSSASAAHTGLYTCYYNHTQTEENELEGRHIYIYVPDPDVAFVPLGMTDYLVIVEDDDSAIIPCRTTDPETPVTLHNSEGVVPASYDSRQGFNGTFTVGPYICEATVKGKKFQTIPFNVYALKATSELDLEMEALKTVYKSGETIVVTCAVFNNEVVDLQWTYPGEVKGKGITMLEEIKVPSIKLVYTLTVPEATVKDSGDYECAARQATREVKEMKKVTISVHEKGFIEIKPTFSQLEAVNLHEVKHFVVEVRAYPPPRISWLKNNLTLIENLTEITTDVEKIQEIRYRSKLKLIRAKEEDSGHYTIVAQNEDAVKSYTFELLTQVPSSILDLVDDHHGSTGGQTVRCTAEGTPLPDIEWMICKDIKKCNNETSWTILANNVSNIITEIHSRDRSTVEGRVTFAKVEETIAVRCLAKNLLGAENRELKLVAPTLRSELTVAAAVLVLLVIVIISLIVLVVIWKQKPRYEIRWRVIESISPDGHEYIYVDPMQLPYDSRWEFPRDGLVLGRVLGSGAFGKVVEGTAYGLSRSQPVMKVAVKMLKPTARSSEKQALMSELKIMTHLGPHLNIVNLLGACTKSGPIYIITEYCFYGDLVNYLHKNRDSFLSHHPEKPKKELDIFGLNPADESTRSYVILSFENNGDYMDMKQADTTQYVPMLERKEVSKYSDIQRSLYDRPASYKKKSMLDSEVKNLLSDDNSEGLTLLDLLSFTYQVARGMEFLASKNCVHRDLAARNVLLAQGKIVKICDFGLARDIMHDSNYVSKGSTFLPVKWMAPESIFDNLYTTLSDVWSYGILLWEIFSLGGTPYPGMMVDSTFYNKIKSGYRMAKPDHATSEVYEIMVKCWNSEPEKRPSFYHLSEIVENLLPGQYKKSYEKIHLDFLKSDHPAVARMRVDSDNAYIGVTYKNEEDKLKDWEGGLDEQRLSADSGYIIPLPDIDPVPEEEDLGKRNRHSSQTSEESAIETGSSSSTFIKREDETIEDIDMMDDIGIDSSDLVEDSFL
Description: KINOMEscan competition binding, single concentration on PDGFRα

CDK2 = target: T12, CDK2 (Homo sapiens, UniProt P24941)
T12 construct: KINOMEscan (Ambit) panel kinase; no cyclin named
Description: KINOMEscan competition binding, single concentration on CDK2

HCK = target: T13, HCK (Homo sapiens, UniProt P08631)
T13 construct: KINOMEscan (Ambit) panel kinase
T13 sequence (P08631 2-526): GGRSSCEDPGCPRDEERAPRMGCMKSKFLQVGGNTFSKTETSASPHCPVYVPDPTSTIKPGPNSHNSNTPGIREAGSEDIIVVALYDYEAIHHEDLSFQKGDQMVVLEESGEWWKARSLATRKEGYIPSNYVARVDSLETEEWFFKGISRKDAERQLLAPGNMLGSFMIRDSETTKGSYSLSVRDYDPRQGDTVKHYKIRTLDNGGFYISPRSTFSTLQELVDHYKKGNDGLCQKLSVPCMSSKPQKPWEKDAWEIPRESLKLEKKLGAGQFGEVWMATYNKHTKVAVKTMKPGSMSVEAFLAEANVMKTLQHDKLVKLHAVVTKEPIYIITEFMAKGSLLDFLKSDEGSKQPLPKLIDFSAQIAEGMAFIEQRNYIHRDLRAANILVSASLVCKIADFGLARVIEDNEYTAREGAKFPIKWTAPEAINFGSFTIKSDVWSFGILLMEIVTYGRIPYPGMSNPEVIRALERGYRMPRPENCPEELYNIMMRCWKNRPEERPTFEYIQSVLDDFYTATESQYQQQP
Description: KINOMEscan competition binding, single concentration on HCK

LCK = target: T14, LCK (Homo sapiens, UniProt P06239)
T14 construct: KINOMEscan (Ambit) panel kinase
T14 sequence (P06239 2-509): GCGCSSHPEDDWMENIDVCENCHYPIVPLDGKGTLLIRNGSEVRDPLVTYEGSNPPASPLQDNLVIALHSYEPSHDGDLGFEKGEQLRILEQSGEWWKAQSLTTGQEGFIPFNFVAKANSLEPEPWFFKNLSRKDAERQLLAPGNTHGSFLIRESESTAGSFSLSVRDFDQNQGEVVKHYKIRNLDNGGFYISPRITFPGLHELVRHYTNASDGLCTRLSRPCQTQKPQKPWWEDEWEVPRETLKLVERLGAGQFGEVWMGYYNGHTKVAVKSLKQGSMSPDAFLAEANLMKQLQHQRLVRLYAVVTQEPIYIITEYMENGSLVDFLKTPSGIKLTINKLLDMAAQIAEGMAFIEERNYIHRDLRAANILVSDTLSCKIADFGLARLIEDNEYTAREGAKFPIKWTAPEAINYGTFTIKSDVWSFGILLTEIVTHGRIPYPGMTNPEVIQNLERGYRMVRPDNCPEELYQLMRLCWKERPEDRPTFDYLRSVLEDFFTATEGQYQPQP
Description: KINOMEscan competition binding, single concentration on LCK

T1 sequence (P53350 2-603): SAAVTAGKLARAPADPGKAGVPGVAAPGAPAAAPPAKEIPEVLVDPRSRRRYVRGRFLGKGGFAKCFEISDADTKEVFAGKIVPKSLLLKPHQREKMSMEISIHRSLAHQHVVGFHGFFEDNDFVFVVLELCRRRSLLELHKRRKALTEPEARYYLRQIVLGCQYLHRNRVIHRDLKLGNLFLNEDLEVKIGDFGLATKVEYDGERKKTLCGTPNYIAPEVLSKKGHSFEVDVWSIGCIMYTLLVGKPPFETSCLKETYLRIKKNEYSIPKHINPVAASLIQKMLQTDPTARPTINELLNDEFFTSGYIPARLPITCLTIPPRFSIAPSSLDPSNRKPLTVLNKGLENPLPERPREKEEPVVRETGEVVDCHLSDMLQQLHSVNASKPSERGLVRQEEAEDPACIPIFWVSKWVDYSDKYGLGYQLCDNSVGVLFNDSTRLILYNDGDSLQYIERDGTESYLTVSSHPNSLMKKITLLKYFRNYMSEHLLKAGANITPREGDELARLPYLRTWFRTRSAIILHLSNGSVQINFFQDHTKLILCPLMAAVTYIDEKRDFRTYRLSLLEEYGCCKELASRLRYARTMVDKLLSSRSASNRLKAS

SMILES: Cc1ccc(C(=O)Nc2cc(-n3ccnc3)cc(C(F)(F)F)c2)cc1C#Cc1cnc(NC2CC2)nc1 [S116836]
- remaining binding at 0.1 µM (PLK1): 100%
- remaining binding at 0.1 µM (PDGFRβ): 3.3%
- remaining binding at 0.1 µM (SRC): 33%
- remaining binding at 0.1 µM (BLK): 10%
- remaining binding at 0.1 µM (TIE2): 0.85%
- remaining binding at 0.1 µM (ABL1-nonphosphorylated [1]): 18%
- remaining binding at 0.1 µM (ABL1-nonphosphorylated [2]): 20%
- remaining binding at 0.1 µM (FLT3): 1.8%
- remaining binding at 0.1 µM (KIT): 6.8%
- remaining binding at 0.1 µM (LYN): 16%
- remaining binding at 0.1 µM (PDGFRα): 26%
- remaining binding at 0.1 µM (CDK2): 99%
- remaining binding at 0.1 µM (HCK): 6.2%
- remaining binding at 0.1 µM (LCK): 3.4%
